“Also recorded” adds a separate entry of the source. Like-named read-outs stand apart in the source and are kept apart here.

The source of these data is patent US10688119B2, “Inhibitors of PCSK9 for treatment of lipoprotein metabolism disorders” (Aarhus Universitet, priority 2015, dated 2020).

One assay deals with LDLR in HepG2 cells. Kind of assay: LDLR levels in HepG2 cells by Western blot/densitometry (PCSK9 induced LDLR degradation).
A further assay deals with apoE−/− mice. The settings on record: 4-week treatment, cited from earlier work.
In another assay the test system is J774 macrophages. Further details: dose or concentration left out as unconfirmed. The settings on record: cited from earlier work.
The nature of assay [1]: heparin affinity chromatography of PCSK9 and variants. In kind it is binding. The note with it: conditioned media, Heparin Sepharose CL-6B beads. The method, then: Purified PCSK9 was loaded onto a 5 ml HiTrap Heparin HP column (GE Healthcare) in PBS. The column was connected to an Äkta Prime and washed with 5 column volumes of 10 mM NaH2PO4 (pH 7.4). PCSK9 was eluted using a linear gradient of 10 mM NaH2PO4 (pH 7.4) and 2 M NaCl and fractions were analyzed by SDS-PAGE. Based on the measured conductivity, the elution profile was transformed to a function of NaCl concentration using the transformation coefficient 0.065 mS/mM NaCl. PCSK9 was retained on the heparin column and eluted at a NaCl concentration of approximately 500 mM (FIG. 2E), indicating a strong and highly specific interaction with heparin.
In a different experiment, conditioned media from HepG2 cells were incubated with Heparin Sepharose CL-6B beads (GE Healthcare) in 10 mM NaH2PO4 (binding buffer). Following overnight incubation on a rotor at 4⊐ C, beads were washed in binding buffer before batch elution of heparin bound proteins in increasing concentration of NaCl. PCSK9 in input, flow through, and elution fractions were evaluated by Western blotting.
Conditioned media from CHO cells transfected with PCSK9 variants of interest were incubated with Heparin Sepharose CL-6B beads (GE Healthcare) in 10 mM NaH2PO4 (binding buffer). Following overnight incubation on a rotor at 4° C., beads were washed in binding buffer before batch elution of heparin bound proteins in increasing concentration of NaCl. PCSK9 in input, flow through, and elution fractions were evaluated by Western blotting.

In another assay the target is PCSK9 (Homo sapiens, UniProt Q8NBP7). Briefly: Microscale Thermophoresis (MST) equilibrium binding to PCSK9. The note with it: 100 nM labelled PCSK9, PBS+0.05% Tween-20. As for the experimental part:
PCSK9 was labeled using the MO-L003 Monolith Blue-NHS labeling kit (NanoTemper Technologies) and a labeling efficiency of 1:1 molar ratio of protein to dye was achieved. PCSK9 was applied at a final concentration of 100 nM. […] MST measurements were performed in standard-treated capillaries (NanoTemper Technologies) on a Monolith NT.115 instrument (NanoTemper Technologies) using 20% LED and 80% MST power. Laser on and off times were 5 s and 35 s, respectively. Negative controls were performed using 100 nM of labelled PCSK9 in MST buffer in all 16 capillaries under the same conditions as mentioned above. […] For each binding partner, the sigmoidal dose-response curves were fitted with GraphPad Prism 6 to yield an average KD value.

For assay [2], the target named is T1, R93R96R97R104R105H139 PCSK9 mutant and variants (Homo sapiens, UniProt Q8NBP7, H139A/R104A/R105A/R93A/R96A/R97A).
T1 construct: expressed in transfected cells
Briefly: immunoprecipitation of 35S-mutant PCSK9 and PCSK9 variants. In kind it is binding. The settings on record: 500 μl conditioned hybridoma media. The method, then: Western blot of GAPDH is shown as loading control. (B) Western Blot showing LDLR levels in liver of mice 1 hour afterintravenous administration of 10 μg PCSK9 alone or in combination with 50 U Heparin. 50 μg membrane preparations were loaded. As control is shown Western Blot for sortilin, a PCSK9 receptor previously shown not to be target of PCSK9 induced degradation. (C) Quantification of B) Bands were quantified by densitometry and dot plot show the individual level of each sample in percent of vehicle (0.9% NaCl) injected controls with mean values and SEM. […] (D) Autoradiography (16 h exposure) showing immunoprecipitation of native human ^35S labeled PCSK9 by serum (1 μl) from three rats immunized with DNA encoding rat PCSK9 with human HSPG binding domain. As negative controls were used preimmune serum from the animals. (E) Western Blot showing LDLR in HepG2 cells after overnight incubation with preimmune or immune IgG (1 μg/ml). […] (F) Autoradiography (16 h exposure) showing immunoprecipitation of human ^35S-PCSK9 by 24 individual mAbs (500 μl conditioned hybridoma media) selected in ELISA screening performed by Aldevron. […] (G) Bar graphs showing LDLR levels (average of 2-4 experiments with SEM) in HepG2 cells incubated with mAbs (1:10 dilution of conditioned hybridoma media) as analysed by Western Blot. Twelve individual mAb clones give an approximately two-fold increase LDLR. (H) Autoradiography (16 h exposure) showing immunoprecipitation of human ^35S-mutant PCSK9 (with R93R96R97R104R105H139 mutated to alanine residues) by 12 individual mAbs (500 μl conditioned hybridoma media) all showing PCSK9 inhibitory effect. As control was used a polyclonal antibody (pAb, AF3888 from R&D systems). […] As control was used R&D Systems AF3888 (pAb).
These 12 clones were tested to see whether they can bind an R93R96R97R104R105H139 PCSK9 mutant (FIG. 8H).

PCSK9, sequence (Q8NBP7 153-692): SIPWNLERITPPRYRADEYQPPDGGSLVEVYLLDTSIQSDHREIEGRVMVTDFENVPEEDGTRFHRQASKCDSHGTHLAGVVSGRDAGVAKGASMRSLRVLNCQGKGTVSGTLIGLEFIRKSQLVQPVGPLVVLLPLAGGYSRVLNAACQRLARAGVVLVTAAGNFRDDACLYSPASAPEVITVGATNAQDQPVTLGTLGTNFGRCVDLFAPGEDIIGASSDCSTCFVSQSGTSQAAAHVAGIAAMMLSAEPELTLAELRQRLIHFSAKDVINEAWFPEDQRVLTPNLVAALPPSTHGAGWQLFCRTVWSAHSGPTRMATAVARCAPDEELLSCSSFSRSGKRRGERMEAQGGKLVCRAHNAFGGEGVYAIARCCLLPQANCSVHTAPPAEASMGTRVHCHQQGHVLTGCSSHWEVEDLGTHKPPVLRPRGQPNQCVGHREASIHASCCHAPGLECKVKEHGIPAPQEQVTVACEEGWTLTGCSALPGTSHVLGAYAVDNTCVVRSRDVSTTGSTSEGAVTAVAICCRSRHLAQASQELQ
Protocol for LDLR in HepG2 cells: Purified PCSK9 variants were tested in a cell assay to test their ability to induce degradation of LDLR compared to wild-type PCSK9. Induction of LDLR degradation was analyzed by incubation of HepG2 cells with wild type PCSK9 (WT) or the above PCSK9 mutants and LDLR levels were assessed by Western blotting. HepG2 cells were seeded at a density 250.000 cells per well in 12-well plates. […] Cells were harvested and lysed following 18 hours incubation and LDLR levels were assessed by Western blotting and quantification by densitometry.
The PCSK9 inhibitory effect of overnight incubation with suramin (0-200 μg/ml) was tested in HepG2 cells (FIG. 9 A-B).

In the case of `CO[C@H]1O[C@H](COS(=O)(=O)O)[C@@H](O[C@@H]2O[C@@H](C(=O)O)[C@@H](O[C@H]3O[C@H](COS(=O)(=O)O)[C@@H](O[C@@H]4O[C@H](C(=O)O)[C@@H](O[C@H]5O[C@H](COS(=O)(=O)O)[C@@H](O)[C@H](O)[C@H]5NS(=O)(=O)O)[C@H](O)[C@H]4O)[C@H](OS(=O)(=O)O)[C@H]3NS(=O)(=O)O)[C@H](O)[C@H]2OS(=O)(=O)O)[C@H](O)[C@H]1NS(=O)(=O)O` [Arixtra, Fondaparinux], the “LDLR level in HepG2 cells” value is on record as “elevated level of LDLR” with LDLR in HepG2 cells (Arixtra 25-250 μg/ml, 24 h) and “increased levels of LDLR” in the assay with LDLR in HepG2 cells (Arixtra 25-250 μg/ml, 24 h, listed as Fondaparinux).

Regarding `Cc1nc(N=Nc2ccc(S(=O)(=O)O)cc2S(=O)(=O)O)c(COP(=O)(O)O)c(C=O)c1O` [PPADS, pyridoxal-phosphate-6-azophenyl-2′-4′-disulphonic acid], the plaque size result with apoE−/− mice (suramin 50 and PPADS 25 mg·kg-1·day-1, listed as PPDAS) is listed as “reduce plaque size”; with apoE−/− mice (suramin 50 and PPADS 25 mg·kg-1·day-1) it was “reduces plaque size”. Further, the “block of UDP effect on iNOS and interleukin-6” value in the assay with J774 macrophages is recorded as “blocked”.

With “Mutant R93: PCSK9 alanine substitution variant”, the “binding to heparin (affinity chromatography)” value in assay [1] was “less affinity for heparin”.

As for “Mutant R93R104R105H139A: PCSK9 alanine substitution variant”, in assay [1], the “binding to heparin (affinity chromatography)” value is reported as “do not bind heparin; also recorded: did not bind to heparin”.

Take dextran [non-sulfated dextran]: the “KD (affinity for PCSK9, MST)” value at PCSK9 is “no affinity”.

dextran sulphate [dextran sulfate]: at PCSK9 (read-out: KD (affinity for PCSK9, MST)), the dissociation constant (Kd) came out at 180 µM. Besides, the “LDLR level in HepG2 cells” value in the assay on LDLR in HepG2 cells (dextran sulphate 0-200 μg/ml, 24 hour) is “concentration dependent increase of LDLR”; with LDLR in HepG2 cells (dextran sulphate 0-200 μg/ml, 24 hour, listed as dextran sulphate), “potently increase the cellular level of LDLR”. In addition, the “plateau of cellular LDLR compared to vehicle control” value with LDLR in HepG2 cells (dose-dependent, HepG2 cells) is given as “around 400%”.

B1: mAb 8HA: rat monoclonal antibody against the HSPG binding domain; VH SEQ ID NO: 9, VK SEQ ID NO: 3 (antibody, V domains shown)
VH: QVTLKESGPGILQPSQTLSLTCSFSGFSLSSSGICVSWIRQPSGKGLEWLATICWEDSKGYNPSLKNRLTISKDTSNNQALLRITSVDTADTAIYYCARVYYWYFDFWGPGTMVTVSS
VL: DIVMTQSPSLLSASVGDRVTLSCKGSQNINNYLAWYQQKLGEAPKLLIYNTNSLQTGIPSRFSGSGSGTDCTLTIRSLQPEDVATYFCYQYNNGNTFGGGTKLELK
B1: the “binding of R93R96R97R104R105H139 PCSK9 mutant (immunoprecipitation)” value in assay [2] is given as “not able to bind this mutant”. Moreover, the “increase of cellular LDLR” value in the assay with LDLR in HepG2 cells (mAbs, 1:10 dilution of conditioned hybridoma media) is given as “approximately two fold”.
